A short description of series [1]: Cytotoxicity against human H460 cells by SRB assay. The class given is functional, cell-based. To be noted: NCI-H460. On the technique in general: In SRB staining, fixed cells bind dye roughly in proportion to their protein.
Series [2] is described as follows: Cytotoxicity against human KB/VCR cells by SRB assay. The class given is functional, cell-based.
The test system of a further series is A549. The series can be described thus: Cytotoxicity against human A549 cells by SRB assay. Format: functional, cell-based.
Another series relates to KB. The series can be described thus: Cytotoxicity against human KB cells by SRB assay. The class given is functional, cell-based.
The nature of series [3]: Stability of the compound in DMSO by HPLC analysis. The class given is physicochemical.

Numbered stars: 1 amine (or outer) side, 2 acyl side, 3 side chain; on linkers, the order of the positions; unused ones are H or OH. Bridge positions count the residues as written; N and C are the ends. Square brackets hold non-standard residues; d marks the D form. Peptide text beside a SMILES is read from it. X1 = C#CCCC[C@H](O[*:2])C(C)(C)C(=O)[*:1]; Hmp(2R,3S) = CC[C@H](C)[C@@H](O)C(=O)O; NMeV = CN[C@H](C(=O)O)C(C)C Where only a bound is given, the exact number is not on record here.

For orientation: IC50 means the concentration that inhibits the measured activity by half. Higher therefore signals weaker potency in that assay. For `C#CCCC[C@@H]1OC(=O)[C@H]([C@@H](C)O)NC(=O)[C@H](C(C)C)N(C)C(=O)[C@@H]2CCCN2C(=O)[C@@H]([C@@H](C)CC)OC(=O)[C@H](C(C)C)N(C)C(=O)[C@H](C(C)C)NC(=O)C1(C)C` [VIEQUEAMIDE A] (V[NMeV][Hmp(2R,3S)]P[NMeV]T; linker N-C via X1), the IC50 (in series [1]; in series [2]; in the series on A549; with KB) was less than 100 µM each time. The Stability result in series [3] is reported as “Unstable”.

These data come from ChEMBL document CHEMBL2375354, “Total synthesis of the marine cyclic depsipeptide viequeamide a” (J Nat Prod, 2013).
